Results from US6911220B1, “Allogeneic and xenogeneic transplantation” (The General Hospital Corporation, priority 1992, dated 2005).

Test system: pig kidney transplants in Cynomolgus monkeys
Test: Pig to monkey kidney xenotransplantation

For N=C(N)NCCCCCCC(=O)NC(O)C(=O)NCCCCNCCCN (stereo not shown) [DSG, 15-deoxyspergualin], the “suppression of natural antibody function” value (6 mg/kg/day, i.v., pig to cynomolgus kidney transplants) was “useful in suppressing natural antibody function”, the “usefulness of combination treatment” value (cyclosporine 15 mg/kg/day 28 days + 15-deoxyspergualin 6 mg/kg/day two weeks + pig SCF and IL-3 10 μg/kg/day i.v. two weeks, pig grafts and stem cells) was “useful” and the “day until which the pig kidney functioned” value (splenectomy + pig liver perfusion, cyclosporine 15 mg/kg/day iv and DSG 6 mg/kg/day iv post-transplant, removed on day 8) was 7 days. The “IgM natural antibodies in serum after liver perfusion” value (with cyclosporine 15 mg/kg/day iv and DSG 6 mg/kg/day iv) was “did not appear in the serum thereafter”.
